Assays:
Format in all cases: cell-based
[1] = test system: Bacillus subtilis ATCC strain 6633; assay: NCCLS broth microdilution test, minimum inhibitory concentration; conditions: for minimum inhibitory concentration / MIC: B. subtilis; for antimicrobial activity / potency (in words): against the target organism B. subtilis; for MIC: Bacillus subtilis, ATCC6633
Protocol: Minimum inhibitory concentrations with Bacillus subtilis ATCC strain 6633 were determined using the National Committee for Clinical Laboratory Standards broth microdilution test (NCCLS, 2000. NCCLS Document M7-A5—Methods for Dilution Antimicrobial Susceptibility Tests for Bacteria that Grow Aerobically, Approved Standard—Fifth Edition). The test was standardised using penicillin G and gentamicin with Staphyloccous aureus ATCC strains 29213 and 25923 and Enterococcus faecalis ATCC strain 29212. Results of standardisation were assessed according to the NCCLS standards (NCCLS, 2000. NCCLS Document M100-S10(M7)—Performance Standards for Antimicrobial Susceptibility Testing; Tenth Informational Supplement (Aerobic Dilution). NCCLS, Wayne, Pa.).

[2] = test system: Bacillus subtilis ATCC strain 6633; assay: filter paper disk / disc diffusion assay on Bacillus subtilis plate
Protocol: The Bacillus subtilis ATCC strain 6633 was used at 9.2 mL of a log phase culture with […] per 200 mL of Luria-Bertani medium containing 1.5% (w/v) agar. The plate was incubated at 28° C. for 24 hours and the diameter of the clearing zone was measured. Dilutions of the extract and fractions from HPLC chromatography were tested in the same way. In some cases, fractions from the column were tested by evaporating them to dryness, redissolving in methanol and simply spotting 10 μL of the methanolic sample directly onto the bacteriological plate and proceeding as described.

[3] = test system: NCl-H460, a human-derived small cell lung carcinoma line; assay: mammalian cell growth, WST-1 proliferation assay; conditions: concentrations up to 100 μg/mL, 19 hours at 37° C.
Protocol: (§1) Effects on mammalian cell growth were determined by exposing cultures of two mammalian neoplastic cell lines (SP2/0—Ag8, a non-secreting mouse myeloma cell line derived from Balb/C mice, and NCl-H460, a human-derived […] lung carcinoma line) to fixed dilutions of the methanolic extract of N. triodiae or to fixed concentrations of fraction 23, (6) for 19 hours at 37° C. Cells were grown in wells of sterile 96-well tissue culture cluster plates by standard methods. Cell growth was estimated using the Cell Proliferation Reagent WST-1 (Roche Diagnostics) according to the manufacturer's instructions and proliferation data were compared with those from untreated control wells.

[4] = test system: SP2/0—Ag8, a non-secreting mouse myeloma cell line; assay: mammalian cell growth, WST-1 proliferation assay; conditions: concentrations up to 30 μg/mL, 19 hours at 37° C.
Protocol: as §1

[5] = unknown concentration and mass of the compound, disc diffusion assay

| Molecule | antimicrobial activity / potency (in words) [1] | minimum inhibitory concentration ([1]; as restated in the discussion) | MIC ([1]; broth microdilution, estimated) | clear zone diameter [2, 5] | also measured |
| --- | --- | --- | --- | --- | --- |
| 1(15),8(19)-trinervitadiene-3α,5α,18-triol 3,5,18-triacetate [Compound 10] | reduced but detectable antimicrobial activity | – | – | – | minimum inhibitory concentration ([1]; broth microdilution, estimated): > 50 µg/mL; antimicrobial activity / potency (in words) ([1]; listed as triacetate): active, albeit less potent than the diols or triol; clear zone diameter ([2]; 5 μg of compound, disc diffusion assay): 11 mm |
| C=C1CCC[C@H](C)CCC2=C(C)[C@@H]3[C@H]1C[C@@H](O)[C@]3(CO)[C@@H](O)C2 [Compound 6, 1(15),8(19)-trinervitadiene-3α,5α,18-triol] | moderately good antimicrobial potency | ≤ 50 parts per million | ≤ 50 µg/mL | – | antimicrobial activity of extracts and HPLC fractions (in words) ([2]; B. subtilis plate test): antimicrobial activity was detected; inhibitory effect on proliferation of NCl-H460 cells [3]: no detectable inhibitory effect; inhibitory effect on proliferation of SP2/0 cells [4]: no detectable inhibitory effect |
| C=C1CCC[C@H](C)CCC2=C(C)[C@@H]3[C@H]1C[C@@H](O)[C@]3(C)[C@@H](O)C2 [Compound 7, 1(15),8(19)-trinervitadiene-3α,5α-diol] | reduced but detectable antimicrobial activity | – | ≤ 50 µg/mL | – | zone of inhibition at 5 µg/disc ([2]; Bacillus subtilis, ATCC6633, 5 μg of compound, disc diffusion assay, read-out: clear zone diameter): 7 mm |
| C=C1CCC[C@H](C)CCC2=C(C)[C@@H]3[C@H]1C[C@@H](OC(C)=O)[C@]3(CO)[C@@H](O)C2 [Compound 8, 1(15),8(19)-trinervitadiene-3α,5α,18-triol 5-acetate] | reduced but detectable antimicrobial activity | – | > 50 µg/mL | 15 mm | antimicrobial activity / potency (in words) ([1]; listed as monoacetate): active, albeit less potent than the diols or triol |
| CC1=C2CC[C@@H](C)CC/C=C(/C)[C@@H]3CC[C@@](C)([C@H]13)[C@@H](O)[C@@H]2O [Compound 9, 1(15),8(9)-trinervitadiene-2β,3α-diol] | – | ≤ 25 parts per million | ≤ 25 µg/mL | 15 mm | antimicrobial potency relative to the triol (6) and diol (7) ([1]; fold more potent): 2-4 times; significant inhibitory activity as low as ([1]; lowest concentration with significant inhibitory activity): 12 parts per million |

From patent publication US20060094780A1, “Novel antibiotic compounds” (priority 2000, published 2006)
